Results published in ChEMBL document CHEMBL4177704, “Synthesis and biological evaluation of water-soluble derivatives of chiral gossypol as HIV fusion inhibitors targeting gp41” (Bioorg Med Chem Lett, 2018).

What was measured:
[1] = system: Human immunodeficiency virus 1; assay: Antiviral activity against HIV-1 3B infected in human TZM-bl cells treated for 2 hrs followed by compound washout measured after 2 days by luciferase reporter assay; format: functional, organism-based
[2] = Selectivity index, ratio of CC50 for human TZM-bl cells to IC50 for HIV-1 3B infected in human TZM-bl cells; format: toxicity, cell-based; conditions: for selectivity ratio: TZM-bl cells, read-out: Ratio CC50/IC50
[3] = (§1) Cytotoxicity against human TZM-bl cells after 72 hrs by MTT assay; format: cell-based; conditions: TZM-bl cells
TZM = assay: as §1; format: cell-based; conditions: tzm, 72 h

Row | Structure (SMILES) | IC50 [1] [µM] | IC50 ([1]; Human immunodeficiency virus 1, 3B, TZM-bl) [µM] | Ratio CC50/IC50 [2] | CC50 at 72 h [3] [µM] | CC50 (TZM) [µM] | selectivity ratio [2]
1 | Cc1cc2c(c(O)c1-c1c(C)cc3c(c1O)/C(=C/NC(C)C(=O)NC(C)C(=O)NC(C)C(=O)[O-])C(=O)C(O)=C3C(C)C)/C(=C/NC(C)C(=O)NC(C)C(=O)NC(C)C(=O)[O-])C(=O)C(O)=C2C(C)C.[Na+].[Na+] (single isomer, unassigned; (+)) | 6.39 | – | 9.19 | 58.7 | – | –
2 | Cc1cc2c(c(O)c1-c1c(C)cc3c(c1O)/C(=C/NC(C)S(=O)(=O)[O-])C(=O)C(O)=C3C(C)C)/C(=C/NC(C)S(=O)(=O)[O-])C(=O)C(O)=C2C(C)C.[Na+].[Na+] (single isomer, unassigned; (+)) | – | 1.97 | 27.81 | 54.8 | – | –
3 | Cc1cc2c(c(O)c1-c1c(C)cc3c(c1O)/C(=C/N[C@@H]1[C@@H](O)[C@H](O)[C@@H](CO)O[C@H]1O)C(=O)C(O)=C3C(C)C)/C(=C/N[C@@H]1[C@@H](O)[C@H](O)[C@@H](CO)O[C@H]1O)C(=O)C(O)=C2C(C)C (stereo in doubt; (+)-1b) | 7.64 | – | 4.3 | 32.9 | – | –
4 | Cc1cc2c(c(O)c1-c1c(C)cc3c(c1O)/C(=C/NC(C)C(=O)NC(C)C(=O)[O-])C(=O)C(O)=C3C(C)C)/C(=C/NC(C)C(=O)NC(C)C(=O)[O-])C(=O)C(O)=C2C(C)C.[Na+].[Na+] (stereo in doubt; (+)-3b) | 5.82 | – | 10.22 | 59.5 | – | –
5 | Cc1cc2c(c(O)c1-c1c(C)cc3c(c1O)/C(=C/NC(CC(=O)[O-])C(=O)NC(C)C(=O)[O-])C(=O)C(O)=C3C(C)C)/C(=C/NC(CC(=O)[O-])C(=O)NC(C)C(=O)[O-])C(=O)C(O)=C2C(C)C.[Na+].[Na+].[Na+].[Na+] (stereo in doubt; (+)-4b) | 5.35 | – | 9.56 | 51.2 | – | –
6 | Cc1cc2c(c(O)c1-c1c(C)cc3c(c1O)/C(=C/NC(C)C(=O)NC(Cc1ccccc1)C(=O)[O-])C(=O)C(O)=C3C(C)C)/C(=C/NC(C)C(=O)NC(Cc1ccccc1)C(=O)[O-])C(=O)C(O)=C2C(C)C.[Na+].[Na+] (stereo in doubt; (+)-5b) | 6.32 | – | 7.97 | 50.3 | – | –
7 | Cc1cc2c(c(O)c1-c1c(C)cc3c(c1O)/C(=C/NCC(=O)NCC(=O)NCC(=O)[O-])C(=O)C(O)=C3C(C)C)/C(=C/NCC(=O)NCC(=O)NCC(=O)[O-])C(=O)C(O)=C2C(C)C.[Na+].[Na+] (stereo in doubt; (+)-6b) | 6.62 | – | 9.42 | 62.4 | – | –
8 | Cc1cc2c(c(O)c1-c1c(C)cc3c(c1O)/C(=C/N[C@H](C(=O)[O-])C(C)C)C(=O)C(O)=C3C(C)C)/C(=C/N[C@H](C(=O)[O-])C(C)C)C(=O)C(O)=C2C(C)C.[Na+].[Na+] (stereo in doubt; (+)-9b) | 5.92 | – | 10.78 | 63.8 | – | –
9 | Cc1cc2c(c(O)c1-c1c(C)cc3c(c1O)/C(=C/N[C@@H](Cc1ccccc1)C(=O)O)C(=O)C(O)=C3C(C)C)/C(=C/N[C@@H](Cc1ccccc1)C(=O)O)C(=O)C(O)=C2C(C)C (stereo in doubt; (-)-13a) | 6.99 | – | – | – | 37.7 | 5.39

Now from value to molecule, other results behind:

Row | IC50 [1] [µM] | IC50 ([1]; Human immunodeficiency virus 1, 3B, TZM-bl) [µM] | Structure (SMILES) | Ratio CC50/IC50 [2] | CC50 at 72 h [3] [µM] | CC50 (TZM) [µM] | selectivity ratio [2]
10 | 4.28 | – | Cc1cc2c(c(O)c1-c1c(C)cc3c(c1O)/C(=C/NC(C)C(=O)NCC(=O)[O-])C(=O)C(O)=C3C(C)C)/C(=C/NC(C)C(=O)NCC(=O)[O-])C(=O)C(O)=C2C(C)C.[Na+].[Na+] (single isomer, unassigned; (+)) | 14.28 | 61.1 | – | –
11 | 1.25 | – | Cc1cc2c(c(O)c1-c1c(C)cc3c(c1O)/C(=C/NC(CC(=O)[O-])C(=O)NC(C)C(=O)[O-])C(=O)C(O)=C3C(C)C)/C(=C/NC(CC(=O)[O-])C(=O)NC(C)C(=O)[O-])C(=O)C(O)=C2C(C)C.[Na+].[Na+].[Na+].[Na+] (single isomer, unassigned; (-)) | 34.1 | – | 42.6 | –
12 | 1.45 | – | Cc1cc2c(c(O)c1-c1c(C)cc3c(c1O)/C(=C/NC(C)C(=O)NC(C)C(=O)NC(C)C(=O)[O-])C(=O)C(O)=C3C(C)C)/C(=C/NC(C)C(=O)NC(C)C(=O)NC(C)C(=O)[O-])C(=O)C(O)=C2C(C)C.[Na+].[Na+] (single isomer, unassigned; (-)) | 27.19 | – | 39.4 | –
13 | 1.56 | – | Cc1cc2c(c(O)c1-c1c(C)cc3c(c1O)/C(=C/NC(C)C(=O)NCC(=O)O)C(=O)C(O)=C3C(C)C)/C(=C/NC(C)C(=O)NCC(=O)O)C(=O)C(O)=C2C(C)C (single isomer, unassigned; (-)) | – | – | 40.3 | 25.8
14 | 4.13 | – | Cc1cc2c(c(O)c1-c1c(C)cc3c(c1O)/C(=C/N[C@@H](C)C(=O)[O-])C(=O)C(O)=C3C(C)C)/C(=C/N[C@@H](C)C(=O)[O-])C(=O)C(O)=C2C(C)C.[Na+].[Na+] (stereo in doubt; (+)-8b) | 17.59 | 72.6 | – | –
15 | 1.62 | – | Cc1cc2c(c(O)c1-c1c(C)cc3c(c1O)/C(=C/NC(C)C(=O)NC(Cc1ccccc1)C(=O)[O-])C(=O)C(O)=C3C(C)C)/C(=C/NC(C)C(=O)NC(Cc1ccccc1)C(=O)[O-])C(=O)C(O)=C2C(C)C.[Na+].[Na+] (stereo in doubt; (-)-5a) | 20.57 | – | 33.3 | –
16 | 1.38 | – | Cc1cc2c(c(O)c1-c1c(C)cc3c(c1O)/C(=C/NCC(=O)NCC(=O)NCC(=O)[O-])C(=O)C(O)=C3C(C)C)/C(=C/NCC(=O)NCC(=O)NCC(=O)[O-])C(=O)C(O)=C2C(C)C.[Na+].[Na+] (stereo in doubt; (-)-6a) | 31.71 | – | 43.8 | –
17 | 0.35 | – | Cc1cc2c(c(O)c1-c1c(C)cc3c(c1O)/C(=C/N[C@@H](C)C(=O)[O-])C(=O)C(O)=C3C(C)C)/C(=C/N[C@@H](C)C(=O)[O-])C(=O)C(O)=C2C(C)C.[Na+].[Na+] (stereo in doubt; (-)-8a) | 183.29 | – | 64.2 | –
18 | 0.49 | – | Cc1cc2c(c(O)c1-c1c(C)cc3c(c1O)/C(=C/N[C@H](C(=O)[O-])C(C)C)C(=O)C(O)=C3C(C)C)/C(=C/N[C@H](C(=O)[O-])C(C)C)C(=O)C(O)=C2C(C)C.[Na+].[Na+] (stereo in doubt; (-)-9a) | 101.82 | – | 49.9 | –
19 | 0.68 | – | Cc1cc2c(c(O)c1-c1c(C)cc3c(c1O)/C(=C/N[C@@H](CC(C)C)C(=O)[O-])C(=O)C(O)=C3C(C)C)/C(=C/N[C@@H](CC(C)C)C(=O)[O-])C(=O)C(O)=C2C(C)C.[Na+].[Na+] (stereo in doubt; (-)-10a) | 78.41 | – | 53.3 | –
20 | 0.47 | – | CC[C@H](C)[C@H](N/C=C1\C(=O)C(O)=C(C(C)C)c2cc(C)c(-c3c(C)cc4c(c3O)/C(=C/N[C@H](C(=O)[O-])[C@@H](C)CC)C(=O)C(O)=C4C(C)C)c(O)c21)C(=O)[O-].[Na+].[Na+] (stereo in doubt; (-)-11a) | 132.29 | – | 62.2 | –
21 | 1.08 | – | Cc1cc2c(c(O)c1-c1c(C)cc3c(c1O)/C(=C/N[C@@H](Cc1c[nH]c4ccccc14)C(=O)[O-])C(=O)C(O)=C3C(C)C)/C(=C/N[C@@H](Cc1c[nH]c3ccccc13)C(=O)[O-])C(=O)C(O)=C2C(C)C.[Na+].[Na+] (stereo in doubt; (-)-12a) | 44.66 | – | 48.2 | –
